Values quoted from earlier work in US9439985B2, “Compositions for radiolabeling diethylenetriaminepentaacetic acid (DTPA)-dextran” (Navidea Biopharmaceuticals, Inc., priority 2009, dated 2016).

Experiments:
[1] = test system: mannose-binding glycoprotein receptors in macrophages and dendritic cells present in the sentinel node; conditions: rabbit; Hoh et al.
[2] = test system: mannose-terminated glycoprotein receptors; conditions: in vitro; Vera et al.

Question: Which biodistribution after injection [1] does the source give for 99mTc-DTPA-mannosyl-dextran here?
Answer: diffuses into lymph channels, flows to the sentinel node, and binds to mannose-binding glycoprotein receptors

Question: Which “binding to mannose-terminated glycoprotein receptors” value [2] does the source give for DTPA-mannosyl-dextran here?
Answer: binds avidly
